According to publication PMC6815936, “A Pan-Cyclophilin Inhibitor, CRV431, Decreases Fibrosis and Tumor Development in Chronic Liver Disease Models” (The Journal of Pharmacology and Experimental Therapeutics, 2019):
pIC50: −log10 of the molar value. Read-outs that look alike come from different tables or passages of the source. Square brackets hold non-standard residues; d marks the D form. Peptide text beside a SMILES is read from it. NMeThr(4R-Me,4-(CH2)6NHAc) = CN[C@H](C(=O)O)[C@H](O)[C@H](C)CCCCCCNC(C)=O; NMeL = CN[C@@H](CC(C)C)C(=O)O; NMeV = CN[C@H](C(=O)O)C(C)C; dNMeA = CN[C@H](C)C(=O)O; Abu = CC[C@H](N)C(=O)O

How the values were obtained:
[1] = CRV431 concentrations in blood and liver, rats; format: in vivo; conditions: Rat
Description: Male and female Sprague–Dawley rats and male C57BL/6 mice from the carbon tetrachloride and NASH studies were used to evaluate CRV431 pharmacokinetics and distribution. […] Terminal whole blood and livers were collected and frozen until drug extraction. Liver samples were homogenized in PBS or 1% formic acid (0.1 g–0.4 g liver sample per ml solvent) with bead-based homogenizers (TissueLyser or Beadruptor). […] Liver CRV431 concentrations were normalized to the masses of the liver samples.

[2] = system: Jurkat activation (NFAT and IL-2 luciferase reporters); assay: Jurkat NFAT and IL-2 luciferase reporter assays taken together; format: cell-based, human
Protocol: The luciferase reporter assays employed Jurkat cells stably transfected with gene constructs consisting of a luciferase gene plus human nuclear factor of activated T cells (NFAT) or interleukin-2 (IL-2) promoter elements (J1621 and J1651; Promega). The NFAT construct contained a DNA binding site only for NFAT, whereas the IL-2 construct contained binding sites for NFAT, nuclear factor κ-light-chain-enhancer of activated B cells, and activating protein-1 transcription factors. Cells were cultured in 96-well plates at 100,000 cells/well in RPMI 1640 medium (11875-093; Thermo Fisher) supplemented with 5% FBS (12483020; Thermo Fisher). Cells were activated either by precoating high protein-binding plates with 3 µg/ml anti-CD3 (UCHT clone) and anti-CD28 (CD28.2 clone) (BioLegend LEAF antibodies) or by adding phorbol myristate acetate (PMA; P8139; Sigma-Aldrich) to 15 ng/ml and A23187 ionophore (C7522; Sigma-Aldrich) to 0.75 µM. […] Cells were harvested after 18 hours of incubation, and luciferase was quantified with Promega Bio-Glo reagent (G7940; Promega) and measurement with a luminescence plate reader. Data were normalized to DMSO controls (100% stimulation) and to wells without antibody or PMA plus A23187 stimulation.

[3] = target: T1, NTCP (Homo sapiens, UniProt Q14973); assay: Drug transporter inhibition, NTCP; format: in vitro ADME
T1 construct: expressed in transfected cells
Protocol: (§1) Briefly, PGP and breast cancer resistance protein inhibition was assessed by measuring the bidirectional transport of substrates across cell monolayers in transwell culture plates. Efflux ratios were represented as (apical-to-basal flux)/(basal-to-apical flux), and efflux ratios were plotted relative to CRV431 concentration to derive IC50 values. Bile salt export pump (BSEP) and multidrug resistance protein (MRP)1 inhibition was assessed by measuring substrate accumulation in membrane vesicles prepared from insect Sf9 cells and recombinantly expressing BSEP and MRP2 (Genomembrane). Inhibition of all other transporters was assessed by measuring substrate accumulation in cells recombinantly expressing the transporter. Known inhibitors of each transporter were used as positive controls for the assays. […] Specific, ATP-dependent uptake was determined by subtracting uptake in negative control vesicles and cells not expressing the transporters, and secondly by subtracting uptake in the absence of ATP in the assays. Specific, ATP-dependent uptake was plotted as a function of CRV431 concentrations and fitted to nonlinear regressions to obtain IC50 values.

[4] = target: OAT3 (Homo sapiens, UniProt Q8TCC7); assay: Drug transporter inhibition, OAT3; conditions: OAT3, HEK293
Protocol: (§2) Bile salt export pump (BSEP) and multidrug resistance protein (MRP)1 inhibition was assessed by measuring substrate accumulation in membrane vesicles prepared from insect Sf9 cells and recombinantly expressing BSEP and MRP2 (Genomembrane). Inhibition of all other transporters was assessed by measuring substrate accumulation in cells recombinantly expressing the transporter. Known inhibitors of each transporter were used as positive controls for the assays. […] Specific, ATP-dependent uptake was determined by subtracting uptake in negative control vesicles and cells not expressing the transporters, and secondly by subtracting uptake in the absence of ATP in the assays. Specific, ATP-dependent uptake was plotted as a function of CRV431 concentrations and fitted to nonlinear regressions to obtain IC50 values.

[5] = target: OAT1 (Homo sapiens, UniProt Q4U2R8); assay: Drug transporter inhibition, OAT1; conditions: OAT1, HEK293
Protocol: as §2

[6] = target: T2, MATE-2 (Homo sapiens, UniProt Q86VL8); assay: Drug transporter inhibition, MATE-2; format: in vitro ADME; conditions: MATE-2, HEK293
T2 construct: expressed in transfected cells
Protocol: Inhibition of all other transporters was assessed by measuring substrate accumulation in cells recombinantly expressing the transporter. Known inhibitors of each transporter were used as positive controls for the assays. […] Specific, ATP-dependent uptake was determined by subtracting uptake in negative control vesicles and cells not expressing the transporters, and secondly by subtracting uptake in the absence of ATP in the assays. Specific, ATP-dependent uptake was plotted as a function of CRV431 concentrations and fitted to nonlinear regressions to obtain IC50 values.

[7] = system: NASH model in C57BL/6 mice; assay: Mouse NASH model (streptozotocin plus high-fat diet); format: in vivo; design: NAS score / Steatosis score / Inflammation score / Ballooning score: scale not given here
Protocol: NASH was initiated in 2-day-old C57BL/6J male mice by intraperitoneal injection with 200 μg streptozotocin (S0130; Sigma-Aldrich) to disrupt pancreatic β cells, induce diabetes, and promote adiposity in the liver. Mice were weaned at 3 weeks of age and begun on a high-fat diet with 60%kcal fat (D12492N; Research Diets) for the duration of the studies. Additionally, mice with a regular diet (D12450KN; Research Diets) and without streptozotocin were included as negative controls. CRV431 was dissolved in a self-microemulsifying drug vehicle and then diluted with PBS and administered daily by oral gavage at 50 mg/kg per day. The start time and duration of vehicle and CRV431 treatments varied depending on the study.
Blood and livers were collected at the end of the NASH and CCl4 studies. In some studies, serum or plasma was isolated from freshly-collected blood, whereas in other studies blood was frozen for later analysis of CRV431 concentration. Livers were immersion-fixed in zinc-formalin and paraffin-embedded for histologic processing. Liver sections were stained with hematoxylin and eosin for assessment of inflammation, ballooning, and steatosis, and with sirius red for assessment of collagen I and III (fibrosis). Sirius red staining was quantified by blinded analysis in one section per liver using ImageJ software. Scoring of steatosis, ballooning, and inflammation (sum of portal and lobular inflammation) in liver sections was based on criteria and training by a board-certified pathologist.
Liver tumors were quantified in freshly collected livers at sacrifice in one NASH study ending at 30 weeks of age. Liver tumors were counted and their diameters measured with a ruler and classified as small (>0.1 cm diameter, but not exceeding 0.5 cm), medium (0.5–1 cm diameter), or large (>1 cm diameter).

[8] = target: T3, recombinant Cyp D (PPIF) (Homo sapiens, UniProt P30405); assay: Cyclophilin isomerase assay, Cyp D; format: biochemical
T3 construct: purchased Cedarlane Laboratories CLENZ385
Protocol: Cyclophilin isomerase activity was measured with an assay described by [Kofron et al. (1991)] with adaptations to 96-well plates. In this assay cyclophilins catalyze cis-to-trans isomerization of a proline peptide bond in a nitroanalide-coupled peptide substrate followed by cleavage of the trans-conformer peptide by α-chymotrypsin, release of the p-nitroaniline chromogen, and quantitation of p-nitroaniline by absorbance at 410 nm. All solutions were pre-equilibrated, and all assays were conducted at 4°C. Plates were preloaded with 5 µl peptide solution consisting of N-succinyl-alanine-alanine-proline-phenylalanine-p-nitroanilide (S7388; Sigma-Aldrich) and 400 mM lithium chloride (310468; Sigma-Aldrich) in anhydrous trifluoroethanol (T63002; Sigma-Aldrich). […] Absorbance measurements with a BMG Polarstar Galaxy plate reader were begun immediately and made at 6-second intervals for 6 minutes. Reaction curves were represented by increases in optical density 410 nm as a function of reaction time. For Ki determinations, initial reaction velocities were obtained from the reaction curves and plotted relative to substrate concentration, and the curves were fitted to the enzyme competitive inhibition model (GraphPad Prism) to derive Ki, maximum velocity (Vmax), and Michaelis constant values. […]

[9] = target: OATP1B1 (Homo sapiens, UniProt Q9Y6L6)
Protocol: as §1

[10] = Week 3–14 Treatment, 50 mg/kg per day oral
[11] = Week 8–14 Treatment, 50 mg/kg per day oral
[12] = Week 20–30 Treatment, 50 mg/kg per day oral

T3 sequence (P30405 30-207): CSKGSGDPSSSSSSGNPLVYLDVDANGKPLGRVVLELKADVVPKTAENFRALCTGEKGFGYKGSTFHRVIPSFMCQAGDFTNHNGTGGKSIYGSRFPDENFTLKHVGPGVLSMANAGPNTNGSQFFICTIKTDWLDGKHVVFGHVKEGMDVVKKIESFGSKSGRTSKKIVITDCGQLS
Sequence of OAT1 (Q4U2R8 whole entry): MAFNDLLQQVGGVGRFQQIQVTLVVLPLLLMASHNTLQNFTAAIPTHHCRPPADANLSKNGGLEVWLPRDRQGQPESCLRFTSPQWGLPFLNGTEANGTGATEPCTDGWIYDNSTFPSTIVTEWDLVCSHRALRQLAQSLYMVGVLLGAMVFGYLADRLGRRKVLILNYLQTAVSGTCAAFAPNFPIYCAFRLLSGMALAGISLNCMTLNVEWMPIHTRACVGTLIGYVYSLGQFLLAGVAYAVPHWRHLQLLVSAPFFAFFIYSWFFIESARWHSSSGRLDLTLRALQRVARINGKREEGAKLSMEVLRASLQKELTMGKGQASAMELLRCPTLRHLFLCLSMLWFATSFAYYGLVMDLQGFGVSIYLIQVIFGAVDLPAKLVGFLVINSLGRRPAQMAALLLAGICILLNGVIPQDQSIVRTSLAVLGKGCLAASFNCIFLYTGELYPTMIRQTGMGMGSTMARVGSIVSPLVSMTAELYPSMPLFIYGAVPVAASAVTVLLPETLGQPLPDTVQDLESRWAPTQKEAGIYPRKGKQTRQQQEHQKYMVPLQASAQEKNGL
T1 sequence (Q14973 whole entry): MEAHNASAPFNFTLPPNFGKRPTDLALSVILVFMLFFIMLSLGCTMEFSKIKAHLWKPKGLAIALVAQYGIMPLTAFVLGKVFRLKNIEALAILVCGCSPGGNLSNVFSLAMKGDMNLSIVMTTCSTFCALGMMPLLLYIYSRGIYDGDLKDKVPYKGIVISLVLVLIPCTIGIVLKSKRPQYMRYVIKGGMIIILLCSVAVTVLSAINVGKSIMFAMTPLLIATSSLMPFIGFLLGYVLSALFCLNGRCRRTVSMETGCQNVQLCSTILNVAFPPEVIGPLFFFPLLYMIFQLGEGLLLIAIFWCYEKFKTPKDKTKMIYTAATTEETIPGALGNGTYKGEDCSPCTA
Sequence of OAT3 (Q8TCC7 whole entry): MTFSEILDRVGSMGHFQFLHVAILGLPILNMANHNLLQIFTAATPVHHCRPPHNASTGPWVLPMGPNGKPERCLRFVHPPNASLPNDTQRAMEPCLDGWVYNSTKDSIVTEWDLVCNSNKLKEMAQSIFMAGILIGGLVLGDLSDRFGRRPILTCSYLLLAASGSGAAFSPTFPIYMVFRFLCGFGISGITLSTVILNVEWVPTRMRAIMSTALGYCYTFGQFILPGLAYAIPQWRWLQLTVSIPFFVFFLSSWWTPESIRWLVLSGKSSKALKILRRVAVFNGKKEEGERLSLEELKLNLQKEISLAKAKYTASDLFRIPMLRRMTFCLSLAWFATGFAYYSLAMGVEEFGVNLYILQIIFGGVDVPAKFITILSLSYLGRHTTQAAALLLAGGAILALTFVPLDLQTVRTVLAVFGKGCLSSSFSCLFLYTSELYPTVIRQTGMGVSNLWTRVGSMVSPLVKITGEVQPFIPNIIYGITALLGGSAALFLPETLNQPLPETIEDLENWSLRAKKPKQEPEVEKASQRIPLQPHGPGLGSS
Sequence of OATP1B1 (Q9Y6L6 whole entry): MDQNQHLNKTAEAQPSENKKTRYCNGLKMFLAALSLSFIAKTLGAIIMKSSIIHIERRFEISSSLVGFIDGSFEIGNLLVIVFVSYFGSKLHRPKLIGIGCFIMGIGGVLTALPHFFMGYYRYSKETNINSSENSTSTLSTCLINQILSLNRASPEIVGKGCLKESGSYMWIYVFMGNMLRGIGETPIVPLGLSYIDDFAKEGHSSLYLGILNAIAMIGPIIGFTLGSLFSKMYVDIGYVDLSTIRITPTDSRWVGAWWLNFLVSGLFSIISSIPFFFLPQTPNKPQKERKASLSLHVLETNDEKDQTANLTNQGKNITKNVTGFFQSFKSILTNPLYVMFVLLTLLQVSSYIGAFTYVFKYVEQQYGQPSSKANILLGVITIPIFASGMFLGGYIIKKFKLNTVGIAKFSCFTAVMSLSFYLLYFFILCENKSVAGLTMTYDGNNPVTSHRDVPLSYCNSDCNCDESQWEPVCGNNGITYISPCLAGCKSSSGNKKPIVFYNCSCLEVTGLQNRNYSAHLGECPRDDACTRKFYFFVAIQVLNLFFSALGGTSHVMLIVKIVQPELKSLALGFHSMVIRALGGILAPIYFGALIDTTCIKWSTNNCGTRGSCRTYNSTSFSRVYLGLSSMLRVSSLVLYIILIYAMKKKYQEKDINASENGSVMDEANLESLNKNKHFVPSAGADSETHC
T2 sequence (Q86VL8 whole entry): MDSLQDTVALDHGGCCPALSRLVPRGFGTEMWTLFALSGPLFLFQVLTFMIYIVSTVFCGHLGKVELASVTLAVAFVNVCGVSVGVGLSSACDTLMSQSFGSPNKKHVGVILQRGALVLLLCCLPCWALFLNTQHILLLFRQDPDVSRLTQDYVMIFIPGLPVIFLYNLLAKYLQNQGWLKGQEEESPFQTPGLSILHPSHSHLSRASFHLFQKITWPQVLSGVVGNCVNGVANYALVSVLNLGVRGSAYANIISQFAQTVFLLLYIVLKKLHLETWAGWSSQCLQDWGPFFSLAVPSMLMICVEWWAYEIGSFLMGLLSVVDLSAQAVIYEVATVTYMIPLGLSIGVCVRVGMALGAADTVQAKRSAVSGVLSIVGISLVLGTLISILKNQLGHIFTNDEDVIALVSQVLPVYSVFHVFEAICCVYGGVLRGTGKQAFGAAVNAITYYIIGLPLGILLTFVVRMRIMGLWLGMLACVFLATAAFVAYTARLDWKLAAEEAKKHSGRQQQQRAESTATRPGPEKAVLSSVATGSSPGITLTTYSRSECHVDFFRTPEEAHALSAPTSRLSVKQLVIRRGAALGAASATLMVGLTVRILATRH

## CC[C@@H]1NC(=O)[C@H]([C@H](O)[C@H](C)CCCCCCNC(C)=O)N(C)C(=O)[C@H](C(C)C)N(C)C(=O)[C@H](CC(C)C)N(C)C(=O)[C@H](CC(C)C)N(C)C(=O)[C@@H](C)NC(=O)[C@H](C)NC(=O)[C@H](CC(C)C)N(C)C(=O)[C@H](C(C)C)NC(=O)[C@H](CC(C)C)N(C)C(=O)[C@@H](C)N(C)C1=O [CRV431] (cyclo(A[dA][NMeL][NMeL][NMeV][NMeThr(4R-Me,4-(CH2)6NHAc)][Abu][dNMeA][NMeL]V[NMeL]))
[1]; 30 mg/kg per day oral, day 7, 12 hours post-dose
  Liver:Blood [CRV431] Ratio: 6.6 ± 1.1
[1]; 30 mg/kg per day oral, day 7, 24 hours post-dose
  Liver:Blood [CRV431] Ratio: 4.8 ± 1.1
[1]; 250 mg/kg per day oral, day 7, 12 hours post-dose
  Liver:Blood [CRV431] Ratio: 7.6 ± 1.8
[1]; 250 mg/kg per day oral, day 7, 24 hours post-dose
  Liver:Blood [CRV431] Ratio: 5.3 ± 0.6
[2]; CRV431 tested up to 20 µM
  suppression of Jurkat activation: not able to completely suppress activation
[2]; from the multiple in vitro immunosuppression assays
  immunosuppression potency relative to CsA levels: ≤ 3%
[2]; range over both reporter lines and both stimulations, nonlinear regression, read-out: IC50 values, Jurkat activation
  pIC50: 6.51 to 6.69
[2]; read-out: estimates of 50% inhibition derived directly from the graphs, range over Jurkat reporter assays
  pIC50: 6.30 to 6.47
[3]
  fold lower activity than CsA toward sodium-dependent taurocholic acid cotransporting polypeptide: 45 fold
[3]; NTCP, HEK293
  pIC50: 4.34
[4]
  CRV431 Inhibitory Potency vs. CsA: >21× more
  pIC50: 6.33
[5]
  CRV431 Inhibitory Potency vs. CsA: Same (no inhibition)
  pIC50: < 4.30
[6]
  CRV431 Inhibitory Potency vs. CsA: Same (no inhibition)
[7]; [10]
  Ballooning score: 0.9 ± 0.6
  Blood glucose: 319 ± 79
  Body weight: 33.5 ± 5.2 (P < 0.05)
  Inflammation score: 1.5 ± 0.7
  Liver weight: 1.28 ± 0.28
  NAS score: 3.7 ± 2.2 (P < 0.05)
  Sirius red %: 1.96 ± 0.72 (P < 0.05) %
  Steatosis score: 1.3 ± 1.1
[7]; [11]
  Ballooning score: 1.8 ± 0.5
  Blood glucose: 463 ± 143
  Body weight: 26.1 ± 5.1
  Inflammation score: 2.4 ± 0.7
  Liver weight: 1.35 ± 0.28
  NAS score: 6.1 ± 1.1
  Sirius red %: 1.02 ± 0.48 (P < 0.05) %
  Steatosis score: 2.0 ± 0.5
[7]; [12]
  Blood glucose: 405 ± 134
  Body weight: 41.6 ± 8.9
  Liver weight: 3.04 ± 1.19 (P < 0.05)
  Sirius red %: 1.62 ± 0.57 (P < 0.05) %
  Tumor number: 4.5 ± 4.4
[7]; Week 20–30 Treatment, 50 mg/kg per day oral, 0–7 scale
  Tumor score: 2.25 ± 2.0 (P < 0.05)
[7]; late, oncogenic stage of the NASH model (abstract)
  reduction in the number and size of liver tumors: 50%
[7]; three NASH model studies, 50 mg/kg per day oral, sirius red
  fibrosis levels lower after CRV431 treatment compared with vehicle treatment: 37%–46%
[7]; treatment from weeks 20 to 30
  livers lacking tumors: 2 of 10
[7]; treatment from weeks 20 to 30, vs vehicle
  decrease of tumor burden (score of tumor number and size): 52%
[8]
  pIC50: 8.55
[8]; CsA IC50 vs CRV431 IC50, PPIF
  IC50 Fold Difference: 3.6
[9]
  pIC50: 6.52
